Test results: US9201014B2, “Development of photostable near-IR cyanine dyes for in vivo imaging” (National University of Singapore, priority 2010, dated 2015)

Key:
[1] = Absorbance and fluorescence maximum wavelengths and quantum yields of the CyNA library; type: physicochemical; conditions: for λabs, absorbance maximum wavelength / λem, fluorescence maximum wavelength: CyNA library; for φ, quantum yield: in DMSO, Cardiogreen as standard
Procedure: Since the k values of the different CyNA compounds indicated some dependency on the chemical structure of the amine, the CyNA scaffold was derivatized with a broad range of primary amines (FIGS. 4A-4C). The fluorescence properties of the 80-member CyNA library were measured. The absorption maximum wavelengths ranged from 802 nm to 806 nm, emission maximum wavelengths ranged from 817 nm to 823 nm, and the average quantum yield was approximately 0.10 (Table 2).
All the chemicals (building block amines plus others) and solvents were purchased from Sigma Aldrich, Alfa Aesar, Fluka, MERCK or Acros, and used without further purification. ^1H-NMR and ^13C-NMR spectra were recorded on Bruker Avance 300 NMR and 500 NMR spectrometers, and chemical shifts are expressed in parts per million (ppm). High-resolution mass spectrometry (HRMS) data was recorded on a Micromass VG 7035. Photobleaching experiments were performed using a UVP Blak-Ray® B-100AP high intensity UV lamp (100 W, 365 nm) Spectroscopic and quantum yield data were measured on a SpectraMax M2 spectrophotometer (Molecular Devices), and the data analysis was performed using GraphPrism 5.0. Photobleaching measurements were performed using an Eclipse Ti-U Nikon microscope (filter cube: 750/800) attached to Ti:sappire oscillator that operated in continuous wave mode, and the data was processed using the software NIS-Elements 3.10. In vivo images were taken in an IVIS Spectrum imaging system (Caliper Life Sciences).

[2] = Primary screening of photostability of the CyNA library (time-course fluorescence, 8 h); type: physicochemical; design: F/Fo, fluorescent intensity at 8 hours vs 0 hours: unit: %; conditions: 10 μM in HEPES 100 mM pH 7.4, 2% DMSO
Procedure: As a primary evaluation of photo stability, the decrease in fluorescence intensity of the 80 CyNA compounds was measured (see Table 2). The average decrease in fluorescence intensity after 8 hours of irradiation by a xenon lamp was approximately 18%. A subset of the most photostable compounds (i.e., F/Fo reported in Table 2 was greater than or equal to 95) was examined under stronger irradiation in various buffers.
10-μM CyNA solutions in 100 mM HEPES buffer (pH 7.4) containing 2% DMSO were placed in a 96-well black plate, and fluorescence intensity measurements were recorded every 10 minutes for a total period of 8 hours (excitation-emission: 790-820 nm). A subset of fourteen compounds selected according to their F8h/Fo quotients, quantum yields and maximum relative fluorescence units (RFU) values was further evaluated in a secondary screening

Row | SMILES | λabs, absorbance maximum wavelength [1] [nm] | λem, fluorescence maximum wavelength [1] [nm] | φ, quantum yield [1] | F/Fo, fluorescent intensity at 8 hours vs 0 hours [2] | max RFU, maximum relative fluorescence units [2]
1 | CCCN1/C(=C/C=C2\CCCC(/C=C/C3=[N+](CCC)c4ccccc4C3(C)C)=C2N(Cc2ccc(OC)cc2OC)C(C)=O)C(C)(C)c2ccccc21 [CyNA-181] | 805 | 821 | 0.14 | 66 | 996.8
2 | CCCN1/C(=C/C=C2\CCCC(/C=C/C3=[N+](CCC)c4ccccc4C3(C)C)=C2N(Cc2cc(OC)cc(OC)c2)C(C)=O)C(C)(C)c2ccccc21 [CyNA-262] | 803 | 822 | 0.10 | 81 | 816.5
3 | CCCN1/C(=C/C=C2\CCCC(/C=C/C3=[N+](CCC)c4ccccc4C3(C)C)=C2N(Cc2cccc(C)c2)C(C)=O)C(C)(C)c2ccccc21 [CyNA-398] | 804 | 819 | 0.07 | 99 | 540.2
4 | CCCN1/C(=C/C=C2\CCCC(/C=C/C3=[N+](CCC)c4ccccc4C3(C)C)=C2N(Cc2cccc(Cl)c2)C(C)=O)C(C)(C)c2ccccc21 [CyNA-403] | 805 | 819 | 0.05 | 45 | 261.6
5 | CCCN1/C(=C/C=C2\CCCC(/C=C/C3=[N+](CCC)c4ccccc4C3(C)C)=C2N(CCc2ccccc2-c2ccccc2)C(C)=O)C(C)(C)c2ccccc21 [CyNA-599] | 805 | 819 | 0.07 | – | 105.9
6 | CCCN1/C(=C/C=C2\CCCC(/C=C/C3=[N+](CCC)c4ccccc4C3(C)C)=C2N(Cc2ccc(OC)c(OC)c2)C(C)=O)C(C)(C)c2ccccc21 [CyNA-319] | 805 | 820 | 0.06 | 67 | 578.6
7 | CCCN1/C(=C/C=C2\CCCC(/C=C/C3=[N+](CCC)c4ccccc4C3(C)C)=C2N(Cc2ccccn2)C(C)=O)C(C)(C)c2ccccc21 [CyNA-401] | 805 | 820 | 0.10 | 91 | 856.5
8 | CCCN(C(C)=O)C1=C(/C=C/C2=[N+](CCC)c3ccccc3C2(C)C)CCC/C1=C\C=C1\N(CCC)c2ccccc2C1(C)C [CyNA-95] | 806 | 818 | 0.09 | 91 | 1027.9
9 | CCCN1/C(=C/C=C2\CCCC(/C=C/C3=[N+](CCC)c4ccccc4C3(C)C)=C2N(CCc2cccc(F)c2)C(C)=O)C(C)(C)c2ccccc21 [CyNA-405] | 806 | 820 | 0.06 | 83 | 138.5
10 | CCCN1/C(=C/C=C2\CCCC(/C=C/C3=[N+](CCC)c4ccccc4C3(C)C)=C2N(CCc2ccc([N+](=O)[O-])cc2)C(C)=O)C(C)(C)c2ccccc21 [CyNA-359] | 805 | 821 | 0.11 | 85 | 527.6
11 | CCCN1/C(=C/C=C2\CCCC(/C=C/C3=[N+](CCC)c4ccccc4C3(C)C)=C2N(CCCN2CCCC2=O)C(C)=O)C(C)(C)c2ccccc21 [CyNA-11] | 802 | 820 | 0.11 | 90 | 1250.1
12 | CCCN1/C(=C/C=C2\CCCC(/C=C/C3=[N+](CCC)c4ccccc4C3(C)C)=C2N(CCC(C)C)C(C)=O)C(C)(C)c2ccccc21 [CyNA-442] | 806 | 822 | 0.07 | 54 | 424.2
13 | CCCN1/C(=C/C=C2\CCCC(/C=C/C3=[N+](CCC)c4ccccc4C3(C)C)=C2N(Cc2ccc(F)cc2)C(C)=O)C(C)(C)c2ccccc21 [CyNA-218] | 802 | 823 | 0.08 | 85 | 549.9
14 | CCCN1/C(=C/C=C2\CCCC(/C=C/C3=[N+](CCC)c4ccccc4C3(C)C)=C2N(Cc2cc(OC)c(OC)c(OC)c2)C(C)=O)C(C)(C)c2ccccc21 [CyNA-356] | 804 | 820 | 0.12 | 83 | 892.3
15 | CCCCCCCCCCCCCN(C(C)=O)C1=C(/C=C/C2=[N+](CCC)c3ccccc3C2(C)C)CCC/C1=C\C=C1\N(CCC)c2ccccc2C1(C)C [CyNA-55] | 804 | 819 | 0.13 | 100 | 162.3
16 | CCCN1/C(=C/C=C2\CCCC(/C=C/C3=[N+](CCC)c4ccccc4C3(C)C)=C2N(Cc2cccc3ccccc23)C(C)=O)C(C)(C)c2ccccc21 [CyNA-542] | 805 | 821 | 0.08 | 74 | 442.7
17 | CCCN1/C(=C/C=C2\CCCC(/C=C/C3=[N+](CCC)c4ccccc4C3(C)C)=C2N(CCc2ccccc2F)C(C)=O)C(C)(C)c2ccccc21 [CyNA-477] | 805 | 819 | 0.09 | – | 169.8
18 | CCCN1/C(=C/C=C2\CCCC(/C=C/C3=[N+](CCC)c4ccccc4C3(C)C)=C2N(Cc2ccc(Cl)cc2Cl)C(C)=O)C(C)(C)c2ccccc21 [CyNA-531] | 804 | 820 | 0.08 | 100 | 187.5
19 | CCCN1/C(=C/C=C2\CCCC(/C=C/C3=[N+](CCC)c4ccccc4C3(C)C)=C2N(Cc2ccc(OC)cc2OC)C(C)=O)C(C)(C)c2ccccc21 [CyNA-358] | 805 | 819 | 0.14 | 100 | 487.4
20 | CCCN1/C(=C/C=C2\CCCC(/C=C/C3=[N+](CCC)c4ccccc4C3(C)C)=C2N(CCCN(C)C)C(C)=O)C(C)(C)c2ccccc21 [CyNA-427] | 805 | 821 | 0.14 | 100 | 1247.4
